Measured values reported in publication PMC6381277, “Cardiolipin Alters Rhodobacter sphaeroides Cell Shape by Affecting Peptidoglycan Precursor Biosynthesis” (mBio, 2019).

Target: T1, MurG (Cereibacter sphaeroides, UniProt Q3J4M2)
T1 construct: full-length murG in pET28b(+), N-terminal His tag cut with thrombin, E. coli BL21(DE3); Triton X-100 extraction; start encoded by primer MGRPLLL
T1 sequence (Q3J4M2 1-364): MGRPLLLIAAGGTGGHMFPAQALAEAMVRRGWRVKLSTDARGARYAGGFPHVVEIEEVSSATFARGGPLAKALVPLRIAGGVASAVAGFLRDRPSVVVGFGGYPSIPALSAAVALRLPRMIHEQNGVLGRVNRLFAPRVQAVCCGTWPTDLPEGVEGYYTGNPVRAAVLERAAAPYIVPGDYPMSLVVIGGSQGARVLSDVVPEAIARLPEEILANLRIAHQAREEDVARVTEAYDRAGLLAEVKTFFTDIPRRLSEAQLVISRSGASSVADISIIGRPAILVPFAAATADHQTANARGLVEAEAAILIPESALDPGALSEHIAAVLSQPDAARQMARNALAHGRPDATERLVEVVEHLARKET
Test: liposome-pelleting assay, SDS-PAGE densitometry
Assay type: binding
Conditions: 6 uM MurG, 4 mM phospholipid, 0.5 uM BSA, 20 mM Tris pH 8.0, room temperature

| Compound | % pelleted MurG (10 mol% PGL in PC liposomes (mixed membrane)) [%] | % pelleted MurG (10 mol% CL in PC liposomes (mixed membrane)) [%] |
| --- | --- | --- |
| CCCCCCCC/C=C\CCCCCCCC(=O)OC[C@H](COP(=O)(O)OCC(O)CO)OC(=O)CCCCCCC/C=C\CCCCCCCC (mixture of isomers) [PGL, 1,2-di-(9Z-octadecenoyl)-sn-glycero-D-phospho-(1′-rac-glycerol)] | 92 |  |
| CCCCCCCC/C=C\CCCCCCCC(=O)OC[C@H](COP(=O)(O)OCC(O)COP(=O)(O)OC[C@@H](COC(=O)CCCCCCC/C=C\CCCCCCCC)OC(=O)CCCCCCC/C=C\CCCCCCCC)OC(=O)CCCCCCC/C=C\CCCCCCCC (some centres unmarked) [CL, 1,1′,2,2′-tetra-(9Z-octadecenoyl) cardiolipin] |  | 92 |
